Results on three compounds are retold here after EP0866656B1, “USE OF N-SUBSTITUTED PYRIDONES AS TUMOR NECROSIS FACTOR ALPHA INHIBITORS” (MARGOLIN, Solomon B., priority 1995, dated 1997).

Series [1] can be described thus: Lethality caused by LPS plus D-galactosamine in mice (Example IV). The series is classed as in vivo.
Series [2] has as its system TNF-α. The experiment in a line: In vivo induction of circulating (serum) TNF-α by LPS in mice. The procedure: This model is a modification of that previously described for the in vivo induction of circulating TNF-α, (Haranaka et al., Cancer Immunol. Immunother, 18:87-90,1984).
The bioassays for TNF-α were confirmed in monitoring tests by using a modification of the basic sandwich ELISA method (Winston et al., "Current Protocols in Molecular Biology," page 11.2.1, Ausubel et al., Ed. 1987.) All other plasma levels of TNF were measured using a modification of the basic sandwich ELISA method (Winston et al., "Current Protocols in Molecular Biology," Pg. 11.2.1, Ausubel et al., Ed. 1987.).
The LPS was injected intravenously into the mice at a dosage of 2.5 micrograms (in a volume of […] from a stock solution of 100 micrograms per […]) per mouse, and the Pirfenidone was administered immediately thereafter. The mice were then bled by cardiac puncture 90 minutes later. Subsequently, the serum was analyzed for TNF-α by a ELISA kit (Endogen).

The test system of series [3] is TNF-α. In words: Endotoxin [LPS] shock in animals (Example III). Conditions: i.p. dosages of 30-400 milligrams per kilogram of body weight. It counts as in vivo.
Series [4] deals with TNF-α. The experiment in a line: TNF-α synthesis within lysed macrophages, ELISA (Example II). It counts as cell-based, murine. Conditions: 60 minutes. The procedure:
In order to determine the direct impact of graded concentrations of pirfenidone upon the synthesis of TNF-α within the cytoplasm of murine macrophages, cell cultures of macrophages, grown in appropriate culture media, were treated with the respective concentrations pirfenidone for 60 minutes: (1) without exposure to LPS (controls) and (2) exposure to 1.0 pg/ml of LPS (E. coli.). Promptly after an exposure for 60 minutes, (a) the macrophages were separated from the culture medium by centrifugation, and (b) the macrophages were lysed. Subsequently, the lysed contents (cell cytoplasm and nucleus) from the macrophage cells were assayed via ELISA for TNF-α levels.

The subject of series [5] is TNF-α. The experiment in a line: TNF induction by macrophages exposed to LPS (TNF bioassay of culture medium). The series is classed as cell-based, murine. Conditions: for TNF induction by macrophages exposed to LPS, Mean +/- S.E.: mean of experiments 1-6. From the text: (§1) The reduction was directly related to the concentration of pirfenidone in the culture media.
(§2) The ability of pirfenidone and related compounds to block the synthesis and the release of TNF-α from macrophages, as well as other cells, was bioassayed by the method of Morgan, Mills, D.L. Lefkowitz, and S.S. Lefkowitz ("An Improved Colorimetric Assay for Tumor Necrosis Factor Using […] Cells Cultured on Novel Microtiter Plates," Jour. Immunol. Method., 145:259-262, 1991).

The subject of another series is macrophages. In words: Toxicity to macrophages in culture. Conditions: 0.9 mg/ml. It counts as cell-based, murine.
From the text: as §1

Series [6] has as its system WEHI neoplastic fibroblast cells. The experiment in a line: Killing of WEHI neoplastic fibroblast cells by TNF-α. The series is classed as cell-based. Conditions: in vitro, 33 to 300 micrograms/milliliter. From the text: (§3) In vitro, pirfenidone at concentrations of 33-900 micrograms/milliliter inhibited the synthesis and/or release of excessive and pathophysiologic amounts of TNF-α from WEHI 164 cells (Table 1, page 40). […]

Series [7] in a line: Diffusion capacity of the lungs (serial DLCO) in patients with pulmonary dysfunction. The series is classed as in vivo. Conditions: oral, preliminary tests.
The subject of a further series is WEHI 164 cells. In words: Inhibition of synthesis and/or release of TNF-α from WEHI 164 cells. It counts as cell-based. Conditions: in vitro, 33-900 micrograms/milliliter.
From the text: as §3, §2

For series [8], the system named is TNF-α. The note with it: oral dosing, serum TNF-α; cited from earlier work.
In a further series the test system is human T cells. The note with it: cited from earlier work; for inhibition of T cell activation (proliferation and IL-2 secretion): anti-CD3 antibody.
A further series relates to mouse T cells. Conditions: cited from earlier work; for inhibition of T cell activation (proliferation and IL-2 secretion): anti-CD3 antibody.
In a further series the test system is THP-1 cells. Conditions: LPS-activated THP-1 cells; read-out: 1C50S, inhibition of TNF-α secretion; cited from earlier work.
Series [9] concerns TNF-α. The note with it: cited from earlier work.

Several values for one entry are separate records, joined by “and”; a condition that tells them apart may be missing. Equal values may be shown once.

For the compound `Cc1ccc(=O)n(-c2ccccc2)c1` [pirfenidone, 5-Methyl-1-phenyl-2-(1H)-pyridone], the “serum levels of TNF-α in the surviving mice” value in [1] (300 mg/kg i.p. 30 minutes prior to LPS plus D-galactosamine) is listed as “approached normal baseline levels”. Further, in series [1] (300 mg/kg i.p. 30 minutes prior to i.v. LPS plus 600mg/kg i.p. D-galactosamine, observed 2 days, 100.0% without pirfenidone), the mortality came to 10.0%. For the same compound, the “inhibition of the rise in TNF-α serum levels as compared to Control Group” value in the series on TNF-α [2] (LPS 2.5 micrograms i.v. per mouse, bled 90 minutes later) stood at 50%. In addition, the “formation and release of TNF-α into the circulation” value in the series on TNF-α [2] (mice, 200 milligrams per kilogram intraperitoneal or greater, maintained for hours) is given as “complete blockage”. Also, in the series with TNF-α [2] (oral, same dosages), the “efficacy when given orally (rise in TNF-α serum levels)” value is listed as “effective in the same dosages”. For the same compound, the “pathophysiological toxic effects of TNF-α (endotoxin [LPS] shock)” value in the series on TNF-α [3] is “inhibited or completely blocked”. Moreover, the “LPS induced rise in TNF-α synthesis within cytoplasm and nucleus of macrophages” value in the series with TNF-α [4] (LPS (E. coli.) 1.0 pg/ml, concentration related, P< 0.01) is “inhibition”. Further, the “levels of TNF-α within the cytoplasm of the macrophages” value in the series on TNF-α [4] (controls, no exposure to LPS, 0.9 mg/ml) is given as “only baseline levels were found”. Besides, the “TNF induction by macrophages exposed to LPS, Mean +/- S.E.” value in the series on TNF-α [5] (Pirfenidone 100 micrograms/ml) is listed as 144+/-29 Relative TNF Units; in the series on TNF-α [5] (Pirfenidone 300 micrograms/ml), 84+/-31 Relative TNF Units; in the series on TNF-α [5] (Pirfenidone 900 micrograms/ml), 43+/-18 Relative TNF Units. In addition, the “TNF induction by macrophages exposed to LPS” value in the series with TNF-α [5] (Pirfenidone 100 micrograms/ml, pre-incubation 0 hours) was 109 Relative TNF Units and 87 Relative TNF Units; in the series on TNF-α [5] (Pirfenidone 100 micrograms/ml, pre-incubation 24 hours) it was 209 Relative TNF Units; in the series with TNF-α [5] (Pirfenidone 300 micrograms/ml, pre-incubation 24 hours), 143 Relative TNF Units; in the series with TNF-α [5] (Pirfenidone 900 micrograms/ml, pre-incubation 24 hours) it was 111 Relative TNF Units. Moreover, the “level of TNF-α secreted into the culture medium” value in the series with TNF-α [5] (thioglycollate-induced murine peritoneal macrophages exposed to LPS, P<0.01) is given as “markedly reduced level”. Besides, in the series with macrophages, the toxicity with macrophages entry is reported as “No toxicity was apparent”. Also, the “killing of WEHI neoplastic fibroblast cells by TNF-α” value in series [6] is given as “did not inhibit”. In addition, the “diffusion capacity of the lungs as measured by serial DLCO determinations” value in series [7] was “marked, rapid and consistent improvement”. The “synthesis and/or release of excessive and pathophysiologic amounts of TNF-α from WEHI 164 cells” value in the series with WEHI 164 cells was “inhibited”.
`CC(C)(C)NCC(O)c1ccc(O)c(CO)c1` (stereo not shown) [albuterol]: the duration of efficacy entry in the series on TNF-α [8] is reported as “much shorter duration of action”. Also, the “inhibition of T cell activation (proliferation and IL-2 secretion)” value (“inhibition of T cell activation” for short) in the series on human T cells and with mouse T cells was “completely inactive” in each case.
Regarding `OCc1cc(C(O)CNCCCCCCOCCCCc2ccccc2)ccc1O` (stereo not shown) [salmeterol], the IC50 in the series on THP-1 cells was around 100 nM. In the series on TNF-α [8], the duration of efficacy is listed as 3 h. In the series on human T cells, the “inhibition of T cell activation” value is given as “able to inhibit”; the “T cell inhibition, fold less potent than that for TNF-α production” value is “about 10 fold”. For the same compound, in the series with mouse T cells, the “inhibition of T cell activation” value is listed as “able to inhibit”; the “T cell inhibition, fold less potent than that for TNF-α production” value is listed as “about 10 fold”. In addition, the “inhibition of serum TNF-α levels” value in the series with TNF-α [9] (LPS/galactosamine endotoxic shock) is given as “up to 94%”. Further, the “animals protected from the lethal effects of the LPS/galactosamine mixture” value with TNF-α [9] (in vivo) is “less than 50%”.
